From ChEMBL document CHEMBL1147398, “New structures and bioactivity patterns of bengazole alkaloids from a choristid marine sponge” (1993) come the findings set out here.

The structures appear in SMILES notation.

The test system of one assay is SK-MEL-5. Kind of assay: Cytotoxicity against human SK-MEL-5 cells. It is filed as functional.
The subject of the next assay is COLO 205. Nature of the assay: Cytotoxicity against human COLO205 cells. It is filed as functional.
The mark [1] stands for this setting: read-out: LC50 (the source's name).

In general, GI50 refers to the concentration giving 50% growth inhibition. High values mean lower sensitivity of the cells, low ones greater sensitivity of the cells. In general, TGI refers to the concentration at which net growth stops. Low readings indicate more potent growth arrest, high ones less potent growth arrest. Consider `CCCCCCCCCCCCCC(=O)O[C@@H](c1cnco1)c1nc([C@@H](O)C[C@@H](O)[C@@H](O)[C@@H](C)O)co1` [BENGAZOLE A], for which the GI50 with SK-MEL-5 stood at 1.13 µM; with COLO 205, 0.181 µM. The TGI with SK-MEL-5 was 4.83 µM; with COLO 205, 1.5 µM. Further, the CC50 in the assay with SK-MEL-5 (setting [1]) was determined as 4.83 µM; with COLO 205 (setting [1]), 5.25 µM.
